Converted amounts (≈) assume the structure as drawn.
How the values were obtained:
C. albicans ATCC 24433 = assay: Antifungal susceptibility, broth dilution MIC (CLSI M27-A2); type: cell-based; conditions: Candida albicans, ATCC24433; C. albicans ATCC 24433; broth dilution, RPMI 1640 with MOPS, 48 hours; read-out: Activity against organisms (MIC50) Ca01
Experimental: (§1) The compounds of Formula 1 were tested for antifungal activity against Candida albicans, C. glabrata, C. krusei, C. tropicalis, Cryptococcus neoformans, Aspergillus fumigatus, A. niger and Fusarium proliferatum. In vitro evaluation of antifungal activity was performed by determining the minimum inhibitory concentration (MIC) following standard methods (CLSI: Reference method for broth dilution antifungal susceptibility testing of yeasts; Approved standard, second edition M27-A2, 2002; CLSI: Reference method for broth dilution antifungal susceptibility testing of filamentous fungi; Approved standard M38-A, 2002). Anti-fungal susceptibility testing of these anti-fungal compounds was done by broth dilution method using RPMI 1640 medium with MOPS buffer. Known anti-fungal agent fluconazole was used as positive control. End points were determined after 48 hours visually and by using spectrophotometer wherever necessary. Different dilutions were tried and various sets of experiments performed. The activity parameters are enumerated in Table 4.

C. glabrata ATCC 90030 = assay: as above; type: cell-based, Candida glabrata; conditions: Nakaseomyces glabratus, ATCC90030; C. glabrata ATCC 90030; broth dilution, RPMI 1640 with MOPS, 48 hours; read-out: Activity against organisms (MIC50) Cg01
Experimental: as §1

C. krusei ATCC 6258 = assay: as above; type: cell-based, Candida krusei; conditions: Pichia kudriavzevii, ATCC6258; C. krusei ATCC 6258; broth dilution, RPMI 1640 with MOPS, 48 hours; read-out: Activity against organisms (MIC50) Ck01
Experimental: as §1

C. tropicalis ATCC 750 = assay: as above; type: cell-based, Candida tropicalis; conditions: Candida tropicalis, ATCC750; C. tropicalis ATCC 750; broth dilution, RPMI 1640 with MOPS, 48 hours; read-out: Activity against organisms (MIC50) Ct01
Experimental: as §1

C. neoformans ATCC 34664 = assay: as above; type: cell-based, Cryptococcus neoformans; conditions: Cryptococcus neoformans, ATCC34664; C. neoformans ATCC 34664; broth dilution, RPMI 1640 with MOPS, 48 hours; read-out: Activity against organisms (MIC50) Cn01
Experimental: as §1

A. fumigatus ATCC 46645 = assay: Antifungal susceptibility, broth dilution MIC (CLSI M38-A); type: cell-based; conditions: Aspergillus fumigatus, ATCC46645; A. fumigatus ATCC 46645; broth dilution, RPMI 1640 with MOPS, 48 hours; read-out: Activity against organisms (MIC50) Afm01
Experimental: as §1

A. niger ATCC 16404 = assay: as above; type: cell-based; conditions: Aspergillus niger, ATCC16404; A. niger ATCC 16404; broth dilution, RPMI 1640 with MOPS, 48 hours; read-out: Activity against organisms (MIC50) An01
Experimental: as §1

[1] = tested on: F. proliferatum ATCC 10052; assay: as above; type: cell-based; conditions: Fusarium proliferatum, ATCC10052; F. proliferatum ATCC 10052; broth dilution, RPMI 1640 with MOPS, 48 hours; read-out: Activity against organisms (MIC50) Fp01
Experimental: as §1

Row | SMILES | MIC50 (C. albicans ATCC 24433) | MIC50 (C. glabrata ATCC 90030) | MIC50 (C. krusei ATCC 6258) | MIC50 (C. tropicalis ATCC 750) | MIC50 (C. neoformans ATCC 34664) | MIC50 (A. fumigatus ATCC 46645) | MIC50 (A. niger ATCC 16404) | MIC50 [1]
1 | Cc1ccc(OCc2cn(CC(O)(Cn3cncn3)c3ccc(F)cc3F)nn2)cc1 (centres unmarked) [Compound 1D-5, 2-(2,4-Difluorophenyl)-1-(4-(4-methylphenyloxy)methyl-1H-1,2,3-triazol-1-yl)-3-(1H-1,2,4-triazol-1-yl)propan-2-ol] | 0.12 µg/mL (≈ 0.281 µM) | 0.03 µg/mL (≈ 0.0704 µM) | 8 µg/mL (≈ 18.8 µM) | 0.5 µg/mL (≈ 1.17 µM) | 2 µg/mL (≈ 4.69 µM) | 64 µg/mL (≈ 150 µM) | 64 µg/mL (≈ 150 µM) | > 128 µg/mL
2 | O=C(/C=C/c1ccc(O)cc1)c1ccc(O)cc1 [Compound 9A-5] | 32 µg/mL (≈ 133 µM) | 16 µg/mL (≈ 66.6 µM) | > 32 µg/mL | > 32 µg/mL | 32 µg/mL (≈ 133 µM) | 16 µg/mL (≈ 66.6 µM) | 8 µg/mL (≈ 33.3 µM) | > 32 µg/mL
3 | O=C(/C=C/c1cccs1)c1ccc(OCc2cn(CC(O)(Cn3cncn3)c3ccc(F)cc3F)nn2)cc1 (centres unmarked) [Compound 1A-4, (E)-1-(4-((1-(2-(2,4-Difluorophenyl)-2-hydroxy-3-(1H-1,2,4-triazol-1-yl)propyl)-1H-1,2,3-triazol-4-yl)methoxy)phenyl)-3-(2-thienyl)prop-2-en-1-one] | 0.12 µg/mL (≈ 0.219 µM) | 0.5 µg/mL (≈ 0.911 µM) | 4 µg/mL (≈ 7.29 µM) | 1 µg/mL (≈ 1.82 µM) | 0.5 µg/mL (≈ 0.911 µM) | > 8 µg/mL | > 8 µg/mL | > 8 µg/mL
4 | OCc1cn(CC(O)(Cn2cncn2)c2ccc(F)cc2F)nn1 (centres unmarked) [Compound 8A-1, 2-(2,4-Difluorophenyl)-1-(4-(hydroxymethyl)-1H-1,2,3-triazol-1-yl)-3-(1H-1,2,4-triazol-1-yl)propan-2-ol] | 32 µg/mL (≈ 95.2 µM) | 2 µg/mL (≈ 5.95 µM) | > 128 µg/mL | > 128 µg/mL | > 128 µg/mL | > 128 µg/mL | > 128 µg/mL | > 128 µg/mL
5 | Cc1ccc(/C=C/C(=O)c2ccc(OCc3cn(CC(O)(Cn4cncn4)c4ccc(F)cc4F)nn3)cc2)cc1 (centres unmarked) [Compound 1A-3, (E)-1-(4-((1-(2-(2,4-Difluorophenyl)-2-hydroxy-3-(1H-1,2,4-triazol-1-yl)propyl)-1H-1,2,3-triazol-4-yl)methoxy)phenyl)-3-(4-methylphenyl)prop-2-en-1-one] | 0.25 µg/mL (≈ 0.449 µM) | 0.25 µg/mL (≈ 0.449 µM) | 4 µg/mL (≈ 7.19 µM) | 2 µg/mL (≈ 3.59 µM) | 0.5 µg/mL (≈ 0.898 µM) | > 4 µg/mL | > 4 µg/mL | > 4 µg/mL
6 | CCCN1CCN(c2ccc(C(=O)/C=C/c3ccc(OCc4cn(CC(O)(Cn5cncn5)c5ccc(F)cc5F)nn4)cc3)cc2)CC1 (centres unmarked) [Compound 1B-5, (E)-3-(4-((1-(2-(2,4-Difluorophenyl)-2-hydroxy-3-(1H-1,2,4-triazol-1-yl)propyl)-1H-1,2,3-triazol-4-yl)methoxy)phenyl)-1-(4-(4-propylpiperazin-1-yl)phenyl)prop-2-en-1-one] | 0.06 µg/mL (≈ 0.0897 µM) | 0.5 µg/mL (≈ 0.748 µM) | > 4 µg/mL | 0.5 µg/mL (≈ 0.748 µM) | 1 µg/mL (≈ 1.5 µM) | > 4 µg/mL | > 4 µg/mL | > 4 µg/mL
7 | COc1ccc(C(=O)/C=C/c2cccs2)cc1 [Compound 10A-2] | > 8 µg/mL | > 8 µg/mL | > 8 µg/mL | > 8 µg/mL | > 8 µg/mL | > 8 µg/mL | > 8 µg/mL | > 8 µg/mL
8 | CCCCN1CCN(c2ccc(C(C)=O)cc2)CC1 [Compound 11A-2] | > 64 µg/mL | > 64 µg/mL | > 64 µg/mL | > 64 µg/mL | > 64 µg/mL | > 64 µg/mL | > 64 µg/mL | > 64 µg/mL
9 | O=C(/C=C/c1ccc(OCc2cn(CC(O)(Cn3cncn3)c3ccc(F)cc3F)nn2)cc1)C1CC1 (centres unmarked) [Compound 1B-4, (E)-1-(Cyclopropyl)-3-(4-((1-(2-(2,4-difluorophenyl)-2-hydroxy-3-(1H-1,2,4-triazol-1-yl)propyl)-1H-1,2,3-triazol-4-yl)methoxy)phenyl)prop-2-en-1-one] | 0.12 µg/mL (≈ 0.237 µM) | 0.5 µg/mL (≈ 0.987 µM) | > 32 µg/mL | 2 µg/mL (≈ 3.95 µM) | 1 µg/mL (≈ 1.97 µM) | > 32 µg/mL | > 32 µg/mL | > 32 µg/mL
10 | O=Cc1ccc(OCc2cn(CC(O)(Cn3cncn3)c3ccc(F)cc3F)nn2)cc1 (centres unmarked) [Compound 1D-2, 4-((1-(2-(2,4-difluorophenyl)-2-hydroxy-3-(1H-1,2,4-triazol-1-yl)propyl)-1H-1,2,3-triazol-4-yl)methoxy)benzaldehyde] | 0.5 µg/mL (≈ 1.14 µM) | 1 µg/mL (≈ 2.27 µM) | 64 µg/mL (≈ 145 µM) | 2 µg/mL (≈ 4.54 µM) | 4 µg/mL (≈ 9.08 µM) | > 128 µg/mL | > 128 µg/mL | > 128 µg/mL
11 | CC(=O)c1ccc(OCc2cn(CC(O)(Cn3cncn3)c3ccc(F)cc3F)nn2)cc1 (centres unmarked) [Compound 1D-3, 1-(4-(4-Acetylphenyloxy)methyl-1H-1,2,3-triazol-1-yl)-2-(2,4-difluorophenyl)-3-(1H-1,2,4-triazol-1-yl)propan-2-ol] | 0.5 µg/mL (≈ 1.1 µM) | 1 µg/mL (≈ 2.2 µM) | 64 µg/mL (≈ 141 µM) | 4 µg/mL (≈ 8.8 µM) | 4 µg/mL (≈ 8.8 µM) | > 128 µg/mL | > 128 µg/mL | > 128 µg/mL
12 | O=C(/C=C/c1cccs1)c1ccc(O)cc1 [Compound 10A-1] | > 32 µg/mL | > 32 µg/mL | > 32 µg/mL | > 32 µg/mL | > 32 µg/mL | > 32 µg/mL | > 32 µg/mL | > 32 µg/mL
13 | OC(Cn1cncn1)(Cn1cc(COc2ccccc2)nn1)c1ccc(F)cc1F (centres unmarked) [Compound 1D-1, 2-(2,4-Difluorophenyl)-1-(4-phenyloxymethyl-1H-1,2,3-triazol-1-yl)-3-(1H-1,2,4-triazol-1-yl)propan-2-ol] | 0.25 µg/mL (≈ 0.606 µM) | 0.25 µg/mL (≈ 0.606 µM) | > 128 µg/mL | 2 µg/mL (≈ 4.85 µM) | 4 µg/mL (≈ 9.7 µM) | > 128 µg/mL | > 128 µg/mL | > 128 µg/mL

From patent US9540350B2, “1-substituted, 4-(substituted phenoxymethyl)-1,2,3-triazole compounds with antifungal properties and methods for preparation thereof” (FDC LIMITED, priority 2013, dated 2017)
